Paper PMC2362731, “Phase I study of Carzelesin (U-80,244) given (4-weekly) by intravenous bolus schedule” (British Journal of Cancer, 1999)

Tested on: patients with advanced solid tumours
Test: Phase I toxicity of Carzelesin, 4-weekly 10 min IV infusion (NCI-CTC grading)
Format: in vivo, human
Settings: for No. of courses with delayed recovery (no. of pts): delayed more than 3 days
Procedure: Carzelesin is a cyclopropylpyrroloindole analogue which acts as a DNA-sequence-specific alkylating agent. In this phase I study, Carzelesin was given as a 4-weekly 10 min IV infusion to 51 patients with advanced solid tumours. Patients received a median of two courses (range 1–5) at one of nine dose levels: 24, 48, 96, 130, 150, 170, 210, 250 and 300 μg m^−2. According to NCI-CTC criteria, non-haematological toxicities (grade 1/2) included fever, nausea and vomiting, mucositis and anorexia, none of which was clearly dose related. The dose-limiting toxicity was haematological and consisted mainly of neutropenia and to a lesser extent thrombocytopenia. From the dose level 150 μg m^−2, the haematological toxicity (particularly thrombocytopenia) was delayed in onset, prolonged and cumulative in some patients. In several courses, double WBC nadirs occurred. The maximum tolerated dose for a single course was 300 μg m^−2. From the dose level 170 μg m^−2, the intended dose intensity could not be delivered to most patients receiving > 2 courses owing to cumulative haematological toxicity. The dose level with the best dose intensity for multiple courses was 150 μg m^−2. The pharmacokinetics of Carzelesin and its metabolites (U-76,073; U-76,074) have been established in 31 patients during the first course of treatment using a HPLC method. […] The concentration of U-76,074 (active metabolite) extended above the lower limit of quantitation (1 ng ml^−1) for short periods of time and only at the higher dose levels. There was no relationship between neutropenia and the AUC of the prodrug Carzelesin, but the presence of detectable plasma levels of the active metabolite U-76,074 was usually associated with a substantial decrease in ANC values. © 1999 Cancer Research Campaign
Carzelesin (U-80,244, Figure 1A) is a cyclopropylpyrroloindole (CPI) prodrug analogue of CC-1065. […] CPI drugs are a class of compounds with unique DNA interactive properties. These agents fit into the minor groove region of DNA, and the CPI function in the molecule mediates a covalent binding to the N3 position of adenine in A-T rich regions, thus forming DNA adducts in a sequence selective fashion (Hurley et al, 1984; Reynolds et al, 1985). Three new CPIs have now been developed. […] Bizelesin differs from the classical CPI drugs in that it contains two chloromethyl functions, which are both converted (via intramolecular rearrangements) to the CPI alkyl- ating species that interact with DNA. Consequently, this agent is capable of forming DNA interstrand cross-links (Lee et al, 1991). […] Therefore, efforts were directed to modu- late the alkylation rate by the preparation of CPI prodrugs that would require chemical or enzymatic conversion. The activation of Carzelesin is a two-step reaction with hydrolysis of the phenyl- urethane substituent to form the intermediate compound U-76,073, followed by ring closure to form the active product U-76,074 (Figure 1B). […] This higher efficacy may be related to the pharmacologic features of the compound. […] Phase I study of Carzelesin (U-80,244) given (4-weekly) by intravenous bolus schedule A Awada1, CJA Punt2, MJ Piccart1, O Van Tellingen3, L Van Manen2, J Kerger1, Y Groot4, J Wanders4, J Verweij5 and DJTh Wagener2 1Institut Jules Bordet, Bd de Waterloo 125, 1000 Brussels, Belgium; 2University Hospital, Geert Grooteplein 8, Box 9101, 6500 HB Nijmegen, The Netherlands; 3The Netherlands Cancer Institute (Antoni van Leeuwenhoek Huis), Plesmanlaan 121, 1066 CX Amsterdam, The Netherlands; 4European Organization for Research and Treatment of Cancer - New Drug Development Office, PO Box 7057, Amsterdam, The Netherlands; 5Rotterdam Cancer Institute, Groene Hilledijk 301, 3075 EA Rotterdam, The Netherlands; on behalf of the EORTC Early Clinical Studies Group and EORTC NDDO Summary Carzelesin is a cyclopropylpyrroloindole analogue which acts as a DNA-sequence-specific alkylating agent. […]

CCN(CC)c1ccc2cc(C(=O)Nc3ccc4[nH]c(C(=O)N5C[C@@H](CCl)c6c5cc(OC(=O)Nc5ccccc5)c5[nH]cc(C)c65)cc4c3)oc2c1 [Carzelesin]
dose level with the best dose intensity for multiple courses (4-weekly 10 min IV infusion): 150 μg m^−2 | maximum tolerated dose for a single course (4-weekly 10 min IV infusion): 300 μg m^−2 | No. of reduced courses due to haematological toxicity (Table 2, dose level 24 μg m-2): 0 | No. of courses with delayed recovery (no. of pts) (Table 2, dose level 24 μg m-2): 0 | No. of reduced courses due to haematological toxicity (Table 2, dose level 48 μg m-2): 0 | No. of courses with delayed recovery (no. of pts) (Table 2, dose level 48 μg m-2): 0 | No. of reduced courses due to haematological toxicity (Table 2, dose level 96 μg m-2): 0 | No. of courses with delayed recovery (no. of pts) (Table 2, dose level 96 μg m-2): 0 | No. of reduced courses due to haematological toxicity (Table 2, dose level 130 μg m-2): 0 | No. of courses with delayed recovery (no. of pts) (Table 2, dose level 130 μg m-2): 0 | No. of courses with delayed recovery (no. of pts) (Table 2, dose level 150 μg m-2): 3 (1) | No. of reduced courses due to haematological toxicity (Table 2, dose level 150 μg m-2, reduced to 130, 1 patient): 3 | No. of reduced courses due to haematological toxicity (Table 2, dose level 170 μg m-2): 0 | No. of courses with delayed recovery (no. of pts) (Table 2, dose level 170 μg m-2): 4 (4) | No. of courses with delayed recovery (no. of pts) (Table 2, dose level 210 μg m-2): 5 (5) | No. of reduced courses due to haematological toxicity (Table 2, dose level 210 μg m-2, reduced to 96, 105, 150, 4 patients): 6 | No. of courses with delayed recovery (no. of pts) (Table 2, dose level 250 μg m-2): 3 (3) | No. of reduced courses due to haematological toxicity (Table 2, dose level 250 μg m-2, reduced to 130, 170, 3 patients): 6 | No. of courses with delayed recovery (no. of pts) (Table 2, dose level 300 μg m-2): 2 (2) | No. of reduced courses due to haematological toxicity (Table 2, dose level 300 μg m-2, reduced to 150, 2 patients): 2 | Neutropenia grade 3/4, No. of courses (Table 3, dose level 24 μg m-2): 0 | Neutropenia grade 3/4, No. of patients (worst grade per patient) (Table 3, dose level 24 μg m-2): 0 | Neutropenia grade 3/4, patients following the first course (Table 3, dose level 24 μg m-2): 0 | No. of toxic patients following the first course (Table 3, dose level 24 μg m-2): 0 | Thrombocytopenia grade 3/4, No. of courses (Table 3, dose level 24 μg m-2): 0 | Thrombocytopenia grade 3/4, No. of patients (worst grade per patient) (Table 3, dose level 24 μg m-2): 0 | Thrombocytopenia grade 3/4, patients following the first course (Table 3, dose level 24 μg m-2): 0 | No. of toxic patients/courses (grade 3/4 neutropenia and/or thrombocytopenia) (Table 3, dose level 24 μg m-2, 4/6 evaluable patients/courses): 0 | Neutropenia grade 3/4, No. of courses (Table 3, dose level 48 μg m-2): 0 | Neutropenia grade 3/4, No. of patients (worst grade per patient) (Table 3, dose level 48 μg m-2): 0 | Neutropenia grade 3/4, patients following the first course (Table 3, dose level 48 μg m-2): 0 | No. of toxic patients following the first course (Table 3, dose level 48 μg m-2): 0 | Thrombocytopenia grade 3/4, No. of courses (Table 3, dose level 48 μg m-2): 0 | Thrombocytopenia grade 3/4, No. of patients (worst grade per patient) (Table 3, dose level 48 μg m-2): 0 | Thrombocytopenia grade 3/4, patients following the first course (Table 3, dose level 48 μg m-2): 0 | No. of toxic patients/courses (grade 3/4 neutropenia and/or thrombocytopenia) (Table 3, dose level 48 μg m-2, 3/7 evaluable patients/courses): 0 | Neutropenia grade 3/4, No. of courses (Table 3, dose level 96 μg m-2): 0/1 | Neutropenia grade 3/4, No. of patients (worst grade per patient) (Table 3, dose level 96 μg m-2): 0/1 | Neutropenia grade 3/4, patients following the first course (Table 3, dose level 96 μg m-2): 0/1 | No. of toxic patients following the first course (Table 3, dose level 96 μg m-2): 2 | Thrombocytopenia grade 3/4, No. of courses (Table 3, dose level 96 μg m-2): 1/0 | Thrombocytopenia grade 3/4, No. of patients (worst grade per patient) (Table 3, dose level 96 μg m-2): 1/0 | Thrombocytopenia grade 3/4, patients following the first course (Table 3, dose level 96 μg m-2): 1/0 | No. of toxic patients/courses (grade 3/4 neutropenia and/or thrombocytopenia) (Table 3, dose level 96 μg m-2, 5/8 evaluable patients/courses): 2/2 | Neutropenia grade 3/4, No. of courses (Table 3, dose level 130 μg m-2): 2/0 | Neutropenia grade 3/4, No. of patients (worst grade per patient) (Table 3, dose level 130 μg m-2): 2/0 | Neutropenia grade 3/4, patients following the first course (Table 3, dose level 130 μg m-2): 0 | No. of toxic patients following the first course (Table 3, dose level 130 μg m-2): 0 | Thrombocytopenia grade 3/4, No. of courses (Table 3, dose level 130 μg m-2): 2/1 | Thrombocytopenia grade 3/4, No. of patients (worst grade per patient) (Table 3, dose level 130 μg m-2): 2/1 | Thrombocytopenia grade 3/4, patients following the first course (Table 3, dose level 130 μg m-2): 0 | No. of toxic patients/courses (grade 3/4 neutropenia and/or thrombocytopenia) (Table 3, dose level 130 μg m-2, 5/9 evaluable patients/courses): 3/3 | Neutropenia grade 3/4, No. of courses (Table 3, dose level 150 μg m-2): 2/2 | Neutropenia grade 3/4, No. of patients (worst grade per patient) (Table 3, dose level 150 μg m-2): 1/2 | Neutropenia grade 3/4, patients following the first course (Table 3, dose level 150 μg m-2): 0/1 | No. of toxic patients following the first course (Table 3, dose level 150 μg m-2): 2 | Thrombocytopenia grade 3/4, No. of courses (Table 3, dose level 150 μg m-2): 1/1 | Thrombocytopenia grade 3/4, No. of patients (worst grade per patient) (Table 3, dose level 150 μg m-2): 1/1 | Thrombocytopenia grade 3/4, patients following the first course (Table 3, dose level 150 μg m-2): 1/1 | No. of toxic patients/courses (grade 3/4 neutropenia and/or thrombocytopenia) (Table 3, dose level 150 μg m-2, 6/14 evaluable patients/courses): 4/5 | Neutropenia grade 3/4, No. of courses (Table 3, dose level 170 μg m-2): 1/3 | Neutropenia grade 3/4, No. of patients (worst grade per patient) (Table 3, dose level 170 μg m-2): 1/3 | Neutropenia grade 3/4, patients following the first course (Table 3, dose level 170 μg m-2): 0/2 | No. of toxic patients following the first course (Table 3, dose level 170 μg m-2): 4 | Thrombocytopenia grade 3/4, No. of courses (Table 3, dose level 170 μg m-2): 5/2 | Thrombocytopenia grade 3/4, No. of patients (worst grade per patient) (Table 3, dose level 170 μg m-2): 3/2 | Thrombocytopenia grade 3/4, patients following the first course (Table 3, dose level 170 μg m-2): 3/0 | No. of toxic patients/courses (grade 3/4 neutropenia and/or thrombocytopenia) (Table 3, dose level 170 μg m-2, 9/16 evaluable patients/courses): 6/8 | Neutropenia grade 3/4, No. of courses (Table 3, dose level 210 μg m-2): 3/3 | Neutropenia grade 3/4, No. of patients (worst grade per patient) (Table 3, dose level 210 μg m-2): 2/3 | Neutropenia grade 3/4, patients following the first course (Table 3, dose level 210 μg m-2): 3/1 | No. of toxic patients following the first course (Table 3, dose level 210 μg m-2): 4 | Thrombocytopenia grade 3/4, No. of courses (Table 3, dose level 210 μg m-2): 0/2 | No. of toxic patients/courses (grade 3/4 neutropenia and/or thrombocytopenia) (Table 3, dose level 210 μg m-2, 7/10 evaluable patients/courses): 5/6 | Thrombocytopenia grade 3/4, No. of patients (worst grade per patient) (Table 3, dose level 210 μg m-2, one patient had pre-existing grade 1 thrombocytopenia): 0/2
